Experimental data taken from patent US20110144303A1, “Biologically Active Peptidomimetic Macrocycles” (AILERON Therapeutics, Inc., priority 2008, published 2011).
Like-named read-outs stand apart in the source and are kept apart here. Starred links: 1 amine or outer side, 2 acyl side, 3 side chain; linkers in the order of their positions; H or OH if unused. Positions of bridges follow the written chain, without caps; N, C: chain ends. Non-standard residues stand in square brackets, D forms with d. Residues, ends and D or L forms follow the SMILES beside them. Nle(6-ylidene) = O=C([C@H](CCCC=[*:3])N[*:1])[*:2]; S5 = C=CCCC[C@](C)(N)C(=O)O; Nle = CCCC[C@H](N)C(=O)O

Key:
[1] = Pepsin Stability: (E/S 1:50)
Description: Table printed on a drawing sheet, Figure 12
Title: Pepsin Stability: (E/S 1:50)
The patent's description of the figure: FIG. 12 describes the comparative pepsin stability of SP-1 and SP-35 peptidomimetic macrocycles of the invention.
First reader's note: The title is printed over the plot below the table; the rate constants and half-lives describe degradation by pepsin, and the time points used are on the plot's Time (min) axis.

[2] = Pharmacokinetics of SP-1 and SP-35 in Rat following IV dose; details: for Cmax / MRT / half-life: rat, in vivo, iv
Description: Table printed on a drawing sheet, Figure 18
Title: Pharmacokinetics of SP-1 and SP-35 in Rat following IV dose
The patent's description of the figure: FIG. 18 illustrates the pharmacokinetic properties of SP-1 and SP-35 peptidomimetic macrocycles in rats.
First reader's note: The title stands over the plot above the table and applies to both: rat, IV dose.

GST-Bcl-XL = target: T1, GST-Bcl-XL (Homo sapiens, UniProt Q07817); test: Kd
T1 construct: GST
T1 sequence (Q07817 whole entry, looked up): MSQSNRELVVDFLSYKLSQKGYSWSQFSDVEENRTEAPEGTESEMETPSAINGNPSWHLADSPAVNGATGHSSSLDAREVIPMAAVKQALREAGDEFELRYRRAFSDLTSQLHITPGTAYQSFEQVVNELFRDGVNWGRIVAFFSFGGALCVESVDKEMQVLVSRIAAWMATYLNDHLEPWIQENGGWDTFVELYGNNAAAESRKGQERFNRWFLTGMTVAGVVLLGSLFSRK
Description: Table printed on a drawing sheet, Figure 7
The patent's description of the figure: FIG. 7 depicts binding properties to GST-Bcl-XL of SP-1 and SP-35 peptidomimetic macrocycles.
First copying reader's note: The table stands beside a saturation binding plot (2 µM receptor, 1x PBS + 5 mM CHAPS, 2.5% DMSO) whose legend names GST-Bcl-xL as the receptor for both peptides.
Where the first naming reader finds the target: description_of_the_figure: FIG. 7 depicts binding properties to GST-Bcl-XL of SP-1 and SP-35 peptidomimetic macrocycles.

GST-Bcl-2 [3] = test: Kd
Description: Table printed on a drawing sheet, Figure 8
The patent's description of the figure: FIG. 8 depicts binding properties to GST-Bcl-2 of SP-1 and SP-35 peptidomimetic macrocycles.
First copying reader's note: The Kd values belong to the plot beside the table, titled 'Saturation Binding Curves vs. 2 µM Receptor, 1x PBS + 5 mM CHAPS, 2.5% DMSO', whose legend names the receptor as GST-Bcl-2.
Where the first naming reader finds the target: description_of_the_figure: FIG. 8 depicts binding properties to GST-Bcl-2 of SP-1 and SP-35 peptidomimetic macrocycles.

Bcl-xL = target: T2, Bcl-xL (Homo sapiens, UniProt Q07817); test: Protein-ligand binding experiment for Bcl-xL (SEC-LC-MS affinity selection); details: 1 μM SP-4 and 5 μM Bcl-xL in PBS, 2.5% DMSO, 60 min at room temperature
T2 construct: GST
T2 sequence (Q07817 whole entry, species assumed): as the sequence (Q07817 whole entry, looked up) above
Description: Protein-ligand binding experiments for Bcl-xL. Simple protein-ligand binding experiments were conducted using the following representative procedure outlined for a simple system-wide control experiment using 1 μM SP-4 and 5 μM Bcl-xL. A 1 μL DMSO aliquot of a 40 μM stock solution of SP-4 is dissolved in 19 μL of PBS (Phosphate-buffered saline: 50 mM, pH 7.5 Phosphate buffer containing 150 mM NaCl). The resulting solution is mixed by repeated pipetting and clarified by centrifugation at 10 000 g for 10 min. To a 4 μL aliquot of the resulting supernatant is added 4 μL of 10 μM BCL-xL in PBS. Each 8.0 μL experimental sample thus contains 40 pmol (1.5 μg) of protein at 5.0 μM concentration in PBS plus 1 μM SP-4 and 2.5% DMSO. Duplicate samples thus prepared for each concentration point are incubated for 60 min at room temperature, and then chilled to 4° C. prior to size-exclusion chromatography-LC-MS analysis of 5.0 μL injections. Samples containing a target protein, protein-ligand complexes, and unbound compounds are injected onto an SEC column, where the complexes are separated from non-binding component by a rapid SEC step. The SEC column eluate is monitored using UV detectors to confirm that the early-eluting protein fraction, which elutes in the void volume of the SEC column, is well resolved from unbound components that are retained on the column. […]

[4] = Pharmacokinetics of SP-4 and SP-54 in Rats following IV dose
Description: Table printed on a drawing sheet, Figure 19
Title: Pharmacokinetics of SP-4 and SP-54 in Rats following IV dose
The patent's description of the figure: FIG. 19 illustrates the pharmacokinetic properties of SP-4 and SP-54 peptidomimetic macrocycles in rats.
First reader's note: Pharmacokinetic parameters in rats after IV dosing; the table is printed under a concentration-time plot that is not copied.

GST-Mcl-1 = test: Kd
Description: Table printed on a drawing sheet, Figure 4
The patent's description of the figure: FIG. 4 depicts binding properties to GST-Mcl-1 of SP-4 and SP-54 peptidomimetic macrocycles.
First copying reader's note: Kd values belong to the adjacent saturation binding plot (stapled peptides + GST-Mcl-1, 2 µM receptor, 1x PBS + 5 mM CHAPS, 2.5% DMSO).
Where the first naming reader finds the target: description_of_the_figure: FIG. 4 depicts binding properties to GST-Mcl-1 of SP-4 and SP-54 peptidomimetic macrocycles.

GST-Bcl-2 [5] = test: Kd; remark: listed apart in the source
Description: Table printed on a drawing sheet, Figure 5
The patent's description of the figure: FIG. 5 depicts binding properties to GST-Bcl-2 of SP-4 and SP-54 peptidomimetic macrocycles.
First copying reader's note: Kd values belong to the plot beside the table, titled 'Saturation Binding Curves vs. 2 µM Receptor, 1x PBS + 5 mM CHAPS, 2.5% DMSO', with GST-Bcl-2 as the receptor.
Where the first naming reader finds the target: description_of_the_figure: FIG. 5 depicts binding properties to GST-Bcl-2 of SP-4 and SP-54 peptidomimetic macrocycles.

| Structure (SMILES) | K1 min^-1 [1] | half-life^1 [1] | AUC,inf [2] | Vss [2] | Vz [2] | Cmax [2] | MRT [2] | half-life [2] | Kd (GST-Bcl-XL) | Kd (GST-Bcl-2 [3]) | also measured |
| --- | --- | --- | --- | --- | --- | --- | --- | --- | --- | --- | --- |
| CCCC[C@H](NC(=O)[C@@H]1CCCC=CCCC[C@H](NC(=O)[C@H](C)NC(=O)[C@H](CC(C)C)NC(=O)[C@H](Cc2c[nH]cn2)NC(=O)[C@H](CCCNC(=N)N)NC(=O)[C@H](C)NC(=O)[C@@H](NC(=O)[C@H](CC(N)=O)NC(=O)[C@H](CCCNC(=N)N)NC(=O)[C@@H](NC(=O)[C@@H](NC(=O)[C@H](CC(=O)O)NC(C)=O)[C@@H](C)CC)[C@@H](C)CC)[C@@H](C)CC)C(=O)N[C@@H](C(C)C)C(=O)NCC(=O)N[C@@H](CC(=O)O)C(=O)N1)C(=O)N[C@@H](CC(=O)O)C(=O)N[C@@H](CCCNC(=N)N)C(=O)N[C@@H](CO)C(=O)N[C@H](C(N)=O)[C@@H](C)CC [SP-35, Ac-DIIRNIARHLA#VGD#NleDRSI-NH2] (Ac-DIIRNIARHLA[Nle(6-ylidene)]VGD[Nle(6-ylidene)][Nle]DRSI-NH2; staple 12-16) | 0.15 min⁻¹ | 0.0767 h | 15400 ng·h/mL | 0.132 L/kg | 2.025 L/kg | 32200 ng/mL | 0.68 h | 2.1 h | > 10000 nM | > 10000 nM | K2 min^-1 [1]: 0.0430 min⁻¹; half-life^2 [1]: 0.267 h; Cl [2]: 3.25 mL/min/kg |
| CCCC[C@H](NC(=O)[C@]1(C)CCCC=CCCC[C@](C)(NC(=O)[C@H](C)NC(=O)[C@H](CC(C)C)NC(=O)[C@H](Cc2c[nH]cn2)NC(=O)[C@H](CCCNC(=N)N)NC(=O)[C@H](C)NC(=O)[C@@H](NC(=O)[C@H](CC(N)=O)NC(=O)[C@H](CCCNC(=N)N)NC(=O)[C@@H](NC(=O)[C@@H](NC(=O)[C@H](CC(=O)O)NC(C)=O)[C@@H](C)CC)[C@@H](C)CC)[C@@H](C)CC)C(=O)N[C@@H](C(C)C)C(=O)NCC(=O)N[C@@H](CC(=O)O)C(=O)N1)C(=O)N[C@@H](CC(=O)O)C(=O)N[C@@H](CCCNC(=N)N)C(=O)N[C@@H](CO)C(=O)N[C@H](C(N)=O)[C@@H](C)CC [SP-1, Ac-DIIRNIARHLA$VGD$NleDRSI-NH2] (Ac-DIIRNIARHLA[S5]VGD[S5][Nle]DRSI-NH2; staple 12-16) | 0.0084 min⁻¹ | 1.38 h | 72000 ng·h/mL | 0.098 L/kg | 0.274 L/kg | 37000 ng/mL | 2.2 h | 4.3 h | 43 nM | 1600 nM |  |
| CC[C@H](C)[C@H](NC(C)=O)C(=O)N[C@@H](Cc1c[nH]c2ccccc12)C(=O)N[C@H](C(=O)N[C@@H](C)C(=O)N[C@@H](CCC(N)=O)C(=O)N[C@@H](CCC(=O)O)C(=O)N[C@@H](CC(C)C)C(=O)N[C@@H](CCCNC(=N)N)C(=O)N[C@@]1(C)CCCC=CCCC[C@@](C)(C(=O)N[C@@H](Cc2ccccc2)C(=O)N[C@@H](CC(N)=O)C(=O)N[C@@H](C)C(=O)N[C@@H](Cc2ccc(O)cc2)C(=O)N[C@@H](Cc2ccc(O)cc2)C(=O)N[C@@H](C)C(=O)N[C@@H](CCCNC(=N)N)C(=O)N[C@@H](CCCNC(=N)N)C(N)=O)NC(=O)[C@H](CC(=O)O)NC(=O)CNC(=O)[C@H]([C@@H](C)CC)NC1=O)[C@@H](C)CC [SP-4, Ac-IWIAQELR$IGD$FNAYYARR-NH2] |  |  |  |  |  |  |  |  |  |  | detection of the protein-ligand complex by ESI-MS after size-exclusion chromatography (Bcl-xL): detection of the protein-ligand complex; AUC,inf [4]: 38000 ng·h/mL; Cl [4]: 1.37 mL/min/kg; Vss [4]: 0.263 L/kg; Vz [4]: 0.728 L/kg; Cmax ([4]; rat, in vivo, iv): 18100 ng/mL; MRT ([4]; rat, in vivo, iv): 3.1 h; Kd (GST-Mcl-1): 7 nM; Kd (GST-Bcl-2 [5]): 26 nM |
